Source: PMC4620497 (Scientific Reports, 2015)
Read-outs that look alike come from different tables or passages of the source.

What was measured:
U266 = test: MTT cell viability assay; details: Homo sapiens, U-266, 72 h
HeLa = test: MTT cell viability assay; details: Homo sapiens, 72 h
MV4-11 = test: MTT cell viability assay; details: Homo sapiens, MV4-11, 72 h
A549 = test: MTT cell viability assay; details: Homo sapiens, A549, 72 h
Karpas-299 = test: MTT cell viability assay; details: Homo sapiens, KARPAS-299, 72 h
[1] = test system: Wnt/β-catenin signaling in STF3a cells; test: STF3a SuperTopFlash luciferase reporter assay; type: cell-based; details: 24 h
Method: The cell line STF3a, which stably expresses both the STF (SuperTopFlash) luciferase reporter promoter and the wnt3a gene was used to determine whether SKLB-677 can block the Wnt/β-catenin signaling. […]. […] Here we can conclude that the SKLB-677-mediated blockade of Wnt/β-catenin signaling is not due to FLT3 inhibition. We then examined whether the first-generation FLT3 inhibitors could inhibit Wnt/β-catenin signaling. […].
STF3a cells (8 × 10^3) were seeded overnight in 96-well plates (triplicate wells per treatment). Cells were treated with 0.1% DMSO or tested compounds for 24 h with Luciferase assay system (Promega) performed according to the manufacturer’s instructions. […] The reporter activity was expressed as relative values compared with vehicle control.
Figure 3 Effects of SKLB-677 on Wnt/β-catenin signaling. […]. All data points are means of triplicates ± SD. ns, not statistically significant, **P < 0.01, ***P < 0.005 among groups. […]. (c) STF3a cells were incubated with various concentrations of SKLB-677 for 24 h.The cell lysates were detected using the antibodies against S33/37/T41 Non-phospho β-catenin (active β-catenin), and total β-catenin (β-catenin). (d) STF3a cells were treated with indicated concentrations of SKLB-677 for 24 h. MYC, CCND1, and NKD1 mRNA expressions were determined through real-time qPCR analysis. All samples were normalized to the level of GAPDH (mean ± SEM from triplicate reactions). *P < 0.05, **P < 0.01, ***P < 0.005. (e) Representative images of zebrafish embryos at 24hpf with tail formation after incubation with various concentrations of SKLB-677 for 20 h. (f) Zebrafish embryos were injected with wnt8.1 mRNA (30 pg) or vehicle mRNA (phaenotype control). […]. Results shown in the histogram are expressed as the percentage of embryos in each phenotypic class after the treatment (n > 70). Class 1: wild-type, class 2: posteriorized, resulting in the loss of the eyes, and class 3: more severely posteriorized, as evidenced by head truncation.

BEL7402 = test: MTT cell viability assay; details: Homo sapiens, Bel-7402, 72 h
SMMC7721 = test: MTT cell viability assay; details: Homo sapiens, SMMC-7721, 72 h
Jurkat = test: MTT cell viability assay; details: Homo sapiens, 72 h
MCF-7 = test: MTT cell viability assay; details: Homo sapiens, MCF7, 72 h
HL-60 = test: MTT cell viability assay; details: Homo sapiens, HL-60, 72 h
Raji = test: MTT cell viability assay; details: Homo sapiens, 72 h
[2] = biological target: T1, ABL1(F317I)-phosphorylated (Homo sapiens, UniProt P00519, F317I); test: KINOMEscan panel screen; type: binding; details: read-out: Percent Control(%)
T1 construct: purchased DiscoveRx KINOMEscan (Ambit Biosciences)

ALK(L1196M) = biological target: T2, ALK(L1196M) (Homo sapiens, UniProt Q9UM73, L1196M); test: KINOMEscan panel screen; type: binding; details: read-out: Percent Control(%)
T2 construct: purchased DiscoveRx KINOMEscan (Ambit Biosciences)
T2 sequence (Q9UM73 19-1620 L1196M): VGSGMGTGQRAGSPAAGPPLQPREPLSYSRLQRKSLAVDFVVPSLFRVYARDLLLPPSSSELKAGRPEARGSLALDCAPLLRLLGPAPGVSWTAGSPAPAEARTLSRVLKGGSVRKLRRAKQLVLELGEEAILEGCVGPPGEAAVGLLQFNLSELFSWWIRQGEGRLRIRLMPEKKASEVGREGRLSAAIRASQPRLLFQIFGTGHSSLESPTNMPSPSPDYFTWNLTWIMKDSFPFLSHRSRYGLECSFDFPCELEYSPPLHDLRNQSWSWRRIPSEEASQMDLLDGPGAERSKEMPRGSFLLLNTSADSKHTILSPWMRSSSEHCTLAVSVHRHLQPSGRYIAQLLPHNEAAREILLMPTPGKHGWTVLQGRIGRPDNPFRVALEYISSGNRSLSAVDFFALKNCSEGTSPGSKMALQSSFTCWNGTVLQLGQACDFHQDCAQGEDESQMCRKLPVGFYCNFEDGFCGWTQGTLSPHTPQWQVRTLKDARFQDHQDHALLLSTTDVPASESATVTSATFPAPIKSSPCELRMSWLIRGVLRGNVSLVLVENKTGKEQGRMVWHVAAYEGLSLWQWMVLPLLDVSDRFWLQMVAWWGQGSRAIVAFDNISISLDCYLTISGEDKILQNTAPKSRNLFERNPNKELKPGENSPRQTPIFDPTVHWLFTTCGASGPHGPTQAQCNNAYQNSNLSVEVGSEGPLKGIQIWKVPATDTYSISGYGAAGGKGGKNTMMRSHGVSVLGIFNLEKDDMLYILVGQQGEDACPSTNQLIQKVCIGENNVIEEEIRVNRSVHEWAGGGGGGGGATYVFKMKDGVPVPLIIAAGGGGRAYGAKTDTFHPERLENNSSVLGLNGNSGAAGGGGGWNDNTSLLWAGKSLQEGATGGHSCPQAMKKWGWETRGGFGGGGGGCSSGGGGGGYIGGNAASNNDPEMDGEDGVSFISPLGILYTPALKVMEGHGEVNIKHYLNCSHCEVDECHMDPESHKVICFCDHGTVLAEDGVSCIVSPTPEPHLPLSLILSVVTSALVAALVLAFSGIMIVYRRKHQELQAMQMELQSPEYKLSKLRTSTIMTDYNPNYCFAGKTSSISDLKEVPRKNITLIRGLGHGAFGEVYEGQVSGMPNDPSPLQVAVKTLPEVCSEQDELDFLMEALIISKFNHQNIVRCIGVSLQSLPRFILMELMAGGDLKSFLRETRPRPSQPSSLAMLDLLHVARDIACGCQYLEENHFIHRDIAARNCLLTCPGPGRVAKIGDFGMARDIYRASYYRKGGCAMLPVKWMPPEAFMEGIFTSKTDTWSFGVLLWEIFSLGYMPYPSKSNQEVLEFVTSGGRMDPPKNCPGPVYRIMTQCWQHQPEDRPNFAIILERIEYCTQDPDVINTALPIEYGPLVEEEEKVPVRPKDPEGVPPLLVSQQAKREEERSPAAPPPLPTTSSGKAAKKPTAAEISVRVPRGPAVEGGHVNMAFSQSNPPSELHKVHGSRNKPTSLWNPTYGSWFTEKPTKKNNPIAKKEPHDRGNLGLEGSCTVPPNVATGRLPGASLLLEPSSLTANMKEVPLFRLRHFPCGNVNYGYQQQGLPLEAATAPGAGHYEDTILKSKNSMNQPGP

CASK = biological target: T3, CASK (Homo sapiens, UniProt O14936); test: KINOMEscan panel screen; type: binding; details: read-out: Percent Control(%)
T3 construct: purchased DiscoveRx KINOMEscan (Ambit Biosciences)

ABL1-phosphorylated = biological target: T4, ABL1-phosphorylated (Homo sapiens, UniProt P00519); test: KINOMEscan panel screen; type: binding; details: read-out: Percent Control(%)
T4 construct: purchased DiscoveRx KINOMEscan (Ambit Biosciences)

Miapaca-2 = test: MTT cell viability assay; details: Homo sapiens, MIA PaCa-2, 72 h
ERK8 = biological target: T5, ERK8 (Homo sapiens, UniProt Q8TD08); test: KINOMEscan panel screen; type: binding; details: read-out: Percent Control(%)
T5 construct: purchased DiscoveRx KINOMEscan (Ambit Biosciences)
T5 sequence (Q8TD08 whole entry): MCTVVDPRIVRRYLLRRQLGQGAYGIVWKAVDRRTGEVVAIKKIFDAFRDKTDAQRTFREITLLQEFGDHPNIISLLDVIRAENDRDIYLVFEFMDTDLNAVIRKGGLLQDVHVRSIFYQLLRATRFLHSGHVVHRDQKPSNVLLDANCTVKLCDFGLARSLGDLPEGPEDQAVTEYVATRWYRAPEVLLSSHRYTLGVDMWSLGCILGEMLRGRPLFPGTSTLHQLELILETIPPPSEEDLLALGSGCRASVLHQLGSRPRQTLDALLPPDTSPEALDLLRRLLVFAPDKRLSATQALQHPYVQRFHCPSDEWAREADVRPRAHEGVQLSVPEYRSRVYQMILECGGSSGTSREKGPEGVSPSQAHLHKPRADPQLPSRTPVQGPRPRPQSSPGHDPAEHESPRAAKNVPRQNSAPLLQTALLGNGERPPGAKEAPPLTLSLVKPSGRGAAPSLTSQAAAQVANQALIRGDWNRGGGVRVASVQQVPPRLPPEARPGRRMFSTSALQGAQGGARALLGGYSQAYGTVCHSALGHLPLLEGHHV

[3] = biological target: T6, RSK1(Kin.Dom.2-C-terminal) (Homo sapiens, UniProt Q15418); test: KINOMEscan panel screen; type: binding; details: read-out: Percent Control(%)
T6 construct: RSK1(Kin.Dom.2-C-terminal); purchased DiscoveRx KINOMEscan (Ambit Biosciences)
T6 sequence (Q15418 418-675 limits assumed): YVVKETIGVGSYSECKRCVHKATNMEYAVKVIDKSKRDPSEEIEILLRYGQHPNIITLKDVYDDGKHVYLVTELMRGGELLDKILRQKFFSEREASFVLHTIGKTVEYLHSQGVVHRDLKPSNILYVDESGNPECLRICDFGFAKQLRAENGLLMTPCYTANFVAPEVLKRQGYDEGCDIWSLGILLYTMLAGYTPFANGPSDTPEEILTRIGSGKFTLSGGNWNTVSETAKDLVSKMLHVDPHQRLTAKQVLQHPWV

AURKB = biological target: T7, AURKB (Homo sapiens, UniProt Q96GD4); test: KINOMEscan panel screen; type: binding; details: read-out: Percent Control(%)
T7 construct: purchased DiscoveRx KINOMEscan (Ambit Biosciences)

AMPK-alpha2 = biological target: T8, AMPK-alpha2 (Homo sapiens, UniProt P54646); test: KINOMEscan panel screen; type: binding; details: read-out: Percent Control(%)
T8 construct: purchased DiscoveRx KINOMEscan (Ambit Biosciences)
T8 sequence (P54646 whole entry): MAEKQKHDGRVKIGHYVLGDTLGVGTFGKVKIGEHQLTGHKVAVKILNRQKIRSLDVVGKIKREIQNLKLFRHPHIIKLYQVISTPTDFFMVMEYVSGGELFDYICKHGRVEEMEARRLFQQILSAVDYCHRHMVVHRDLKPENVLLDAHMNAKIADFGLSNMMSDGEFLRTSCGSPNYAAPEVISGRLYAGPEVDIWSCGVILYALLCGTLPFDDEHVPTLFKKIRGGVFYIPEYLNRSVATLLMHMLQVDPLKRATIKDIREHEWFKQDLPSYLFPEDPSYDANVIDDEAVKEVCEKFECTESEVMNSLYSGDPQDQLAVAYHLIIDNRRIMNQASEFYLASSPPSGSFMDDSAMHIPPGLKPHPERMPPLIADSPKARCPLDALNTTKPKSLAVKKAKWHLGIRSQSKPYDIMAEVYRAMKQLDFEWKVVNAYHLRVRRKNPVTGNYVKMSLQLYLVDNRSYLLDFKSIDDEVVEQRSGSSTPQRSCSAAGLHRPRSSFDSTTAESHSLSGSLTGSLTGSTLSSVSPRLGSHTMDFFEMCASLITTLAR

ANKK1 = biological target: T9, ANKK1 (Homo sapiens, UniProt Q8NFD2); test: KINOMEscan panel screen; type: binding; details: read-out: Percent Control(%)
T9 construct: purchased DiscoveRx KINOMEscan (Ambit Biosciences)

DDR1 = biological target: T10, DDR1 (Homo sapiens, UniProt Q08345); test: KINOMEscan panel screen; type: binding; details: read-out: Percent Control(%)
T10 construct: purchased DiscoveRx KINOMEscan (Ambit Biosciences)
T10 sequence (Q08345 19-913): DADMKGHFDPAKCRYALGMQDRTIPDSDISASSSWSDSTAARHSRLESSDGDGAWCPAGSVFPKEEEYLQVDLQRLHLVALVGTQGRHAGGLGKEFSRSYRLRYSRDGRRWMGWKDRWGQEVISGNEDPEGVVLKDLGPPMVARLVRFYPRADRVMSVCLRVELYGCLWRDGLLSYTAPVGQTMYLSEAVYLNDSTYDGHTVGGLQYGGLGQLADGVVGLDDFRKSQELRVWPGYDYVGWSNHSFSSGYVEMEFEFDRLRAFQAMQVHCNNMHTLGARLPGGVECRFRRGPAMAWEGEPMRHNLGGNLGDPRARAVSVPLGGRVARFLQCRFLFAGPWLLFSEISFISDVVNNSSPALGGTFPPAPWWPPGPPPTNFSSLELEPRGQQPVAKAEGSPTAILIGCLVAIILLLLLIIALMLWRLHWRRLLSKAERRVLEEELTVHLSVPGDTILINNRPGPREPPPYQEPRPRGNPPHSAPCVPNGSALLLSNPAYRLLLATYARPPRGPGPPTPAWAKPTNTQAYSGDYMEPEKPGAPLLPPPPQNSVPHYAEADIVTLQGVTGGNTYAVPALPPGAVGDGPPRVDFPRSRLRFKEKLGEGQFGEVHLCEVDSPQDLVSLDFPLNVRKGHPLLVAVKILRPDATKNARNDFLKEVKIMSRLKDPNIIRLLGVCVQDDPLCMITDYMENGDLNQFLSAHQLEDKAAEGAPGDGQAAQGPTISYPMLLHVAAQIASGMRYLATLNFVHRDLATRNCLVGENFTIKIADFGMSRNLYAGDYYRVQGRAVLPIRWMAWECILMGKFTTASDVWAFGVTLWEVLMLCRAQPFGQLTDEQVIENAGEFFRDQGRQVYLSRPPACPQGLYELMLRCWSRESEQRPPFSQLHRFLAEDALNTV

MYLK2 = biological target: T11, MYLK2 (Homo sapiens, UniProt Q9H1R3); test: KINOMEscan panel screen; type: binding; details: read-out: Percent Control(%)
T11 construct: purchased DiscoveRx KINOMEscan (Ambit Biosciences)
T11 sequence (Q9H1R3 whole entry): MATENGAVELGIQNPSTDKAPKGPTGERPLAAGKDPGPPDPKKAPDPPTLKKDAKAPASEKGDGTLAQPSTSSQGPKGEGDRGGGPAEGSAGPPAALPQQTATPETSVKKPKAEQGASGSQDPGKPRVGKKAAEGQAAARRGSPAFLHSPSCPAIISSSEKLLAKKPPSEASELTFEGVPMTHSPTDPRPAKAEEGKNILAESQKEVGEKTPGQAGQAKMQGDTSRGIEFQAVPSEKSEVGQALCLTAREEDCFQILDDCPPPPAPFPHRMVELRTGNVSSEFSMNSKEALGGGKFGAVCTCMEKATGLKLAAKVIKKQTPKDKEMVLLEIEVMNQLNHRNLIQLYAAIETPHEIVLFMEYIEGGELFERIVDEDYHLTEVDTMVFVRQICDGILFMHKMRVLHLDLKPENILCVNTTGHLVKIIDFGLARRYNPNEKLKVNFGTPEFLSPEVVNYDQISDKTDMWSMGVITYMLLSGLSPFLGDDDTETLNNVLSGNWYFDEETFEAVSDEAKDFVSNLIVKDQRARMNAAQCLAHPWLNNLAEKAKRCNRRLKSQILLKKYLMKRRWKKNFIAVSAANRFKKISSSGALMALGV

GCN2(Kin.Dom.2,S808G) = biological target: T12, GCN2(Kin.Dom.2,S808G) (Homo sapiens, UniProt Q9P2K8, S808G); test: KINOMEscan panel screen; type: binding; details: read-out: Percent Control(%)
T12 construct: GCN2(Kin.Dom.2,S808G); purchased DiscoveRx KINOMEscan (Ambit Biosciences)

PLK2 = biological target: T13, PLK2 (Homo sapiens, UniProt Q9NYY3); test: KINOMEscan kinase binding assay (Kd)
T13 construct: purchased DiscoveRx KINOMEscan (Ambit Biosciences)

YSK4 = biological target: T14, YSK4 (Homo sapiens, UniProt Q56UN5); test: KINOMEscan panel screen; type: binding; details: read-out: Percent Control(%)
T14 construct: purchased DiscoveRx KINOMEscan (Ambit Biosciences)

PDPK1 = biological target: T15, PDPK1 (Homo sapiens, UniProt O15530); test: KINOMEscan panel screen; type: binding; details: read-out: Percent Control(%)
T15 construct: purchased DiscoveRx KINOMEscan (Ambit Biosciences)
T15 sequence (O15530 whole entry): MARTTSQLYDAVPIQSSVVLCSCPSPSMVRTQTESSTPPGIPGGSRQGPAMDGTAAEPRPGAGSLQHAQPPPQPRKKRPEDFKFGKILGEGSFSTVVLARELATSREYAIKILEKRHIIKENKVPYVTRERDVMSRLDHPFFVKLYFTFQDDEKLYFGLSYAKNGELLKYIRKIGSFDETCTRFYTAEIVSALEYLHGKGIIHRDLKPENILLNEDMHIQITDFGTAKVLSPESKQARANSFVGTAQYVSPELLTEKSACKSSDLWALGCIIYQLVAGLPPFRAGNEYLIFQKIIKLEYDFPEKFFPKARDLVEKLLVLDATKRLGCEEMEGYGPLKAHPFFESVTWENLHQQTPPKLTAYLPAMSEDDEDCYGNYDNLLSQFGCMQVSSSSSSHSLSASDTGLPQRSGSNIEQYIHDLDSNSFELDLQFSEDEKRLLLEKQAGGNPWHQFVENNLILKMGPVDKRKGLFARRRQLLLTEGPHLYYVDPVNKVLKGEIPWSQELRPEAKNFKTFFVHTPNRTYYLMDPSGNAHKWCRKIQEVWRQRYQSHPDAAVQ

KIT(V559D,T670I) = biological target: T16, KIT(V559D,T670I) (Homo sapiens, UniProt P10721, T670I/V559D); test: KINOMEscan panel screen; type: binding; details: read-out: Percent Control(%)
T16 construct: purchased DiscoveRx KINOMEscan (Ambit Biosciences)

`O=C(Nc1ccc(Oc2ncnc3[nH]ncc23)cc1)Nc1ccc(Cl)c(C(F)(F)F)c1` [Compound 1, 1-(4-(1H-pyrazolo[3,4-d]pyrimidin-4-yloxy)phenyl)-3-(4-chloro-3-(trifluoromethyl)phenyl)urea] gave an IC50 (U266) of over 10 µM, an IC50 (HeLa) of over 10 µM and an IC50 (MV4-11) of 4000 pM. The IC50 (A549) was over 10 µM, the IC50 (Karpas-299) was over 10 µM and the “attenuation of Wnt/β-catenin signaling” value ([1]; STF3a cells) was “very weak activity”. The IC50 (BEL7402) was over 10 µM, the IC50 (SMMC7721) was over 10 µM and the IC50 (Jurkat) was 8.72 µM. For the same compound, the IC50 (MCF-7) was over 10 µM, the IC50 (HL-60) was over 10 µM and the IC50 (Raji) was over 10 µM.
`CC(C)(C)c1cc(NC(=O)Nc2ccc(Oc3ncnc4[nH]ncc34)c(F)c2)no1` [SKLB-677, 1-(4-(1H-pyrazolo[3,4-d]pyrimidin-4-yloxy)-3-fluorophenyl)-3-(5-tert-butylisoxazol-3-yl)urea] was tested, and the IC50 (U266) was over 10 µM, the remaining binding at 10 µM [2] was 43% and the IC50 (HeLa) was 9.45 µM. For the same compound, the remaining binding at 10 µM (ALK(L1196M)) was 71%, the IC50 (MV4-11) was 79 pM and the IC50 (MV4-11; read-out: Cell viability IC50) was 79 pM. The remaining binding at 10 µM (CASK) was 59%, the IC50 (A549) was 6.4 µM and the IC50 (Karpas-299) was 7 µM. It also gave an IC50 ([1]; STF3A, read-out: IC50, inhibition of the Wnt/β-catenin signaling) of under 0.1 µM, a remaining binding at 10 µM (ABL1-phosphorylated) of 3.2% and an IC50 (Miapaca-2) of over 10 µM. The IC50 (BEL7402) was over 10 µM, the IC50 (SMMC7721) was over 10 µM and the remaining binding at 10 µM (ERK8) was 0.8%. The IC50 (Jurkat) was 4.3 µM, the remaining binding at 10 µM [3] was 94% and the remaining binding at 10 µM (AURKB) was 2.6%. For the same compound, the IC50 (MCF-7) was over 10 µM, the remaining binding at 10 µM (AMPK-alpha2) was 7.8% and the remaining binding at 10 µM (ANKK1) was 57%. It also gave a remaining binding at 10 µM (DDR1) of 3.6%, a remaining binding at 10 µM (MYLK2) of 72% and a remaining binding at 10 µM (GCN2(Kin.Dom.2,S808G)) of 20%. The IC50 (HL-60) was 8.9 µM, the IC50 (Raji) was 7.9 µM and the Kd (PLK2) was over 10 µM. The remaining binding at 10 µM (YSK4) was 0.15%, the remaining binding at 10 µM (PDPK1) was 100% and the remaining binding at 10 µM (KIT(V559D,T670I)) was 0.1%.
